Measurements published in publication PMC8815882, “Screening the pandemic response box identified benzimidazole carbamates, Olorofim and ravuconazole as promising drug candidates for the treatment of eumycetoma” (PLoS Neglected Tropical Diseases, 2022).
Where two headings read alike, the source gives them in different places.

Tested on: M. mycetomatis genome strain MM55
Experiment: CLSI M38-A2 based in vitro susceptibility screening (XTT or resazurin), growth at fixed concentration
Type: cell-based, Madurella mycetomatis
Conditions: Madurella mycetomatis; for Percent fungal survival at 100 µM: replicate 2, read-out: Percentage survival at 100um, 100 uM A (second replicate column)
[1] = 25 uM, mean of replicates, MM55, read-out: Percentage survival at 25um, 25 uM mean
[2] = 25 uM, replicate A, MM55, read-out: Percentage survival at 25um, 25 um A
[3] = 25 uM, replicate B, MM55, read-out: Percentage survival at 25um, 25 uM B
[4] = 25 uM, replicate C, MM55, read-out: Percentage survival at 25um, 25 uM C
[5] = mean of replicates, MM55, read-out: Percentage survival at 100um, 100 uM mean
[6] = replicate 1, MM55, read-out: Percentage survival at 100um, 100 uM A
[7] = replicate 2, MM55, read-out: Percentage survival at 100um, 100 uM A
[8] = replicate 3, MM55, read-out: Percentage survival at 100um, 100 uM A
[9] = 25 uM, mean of three replicates, read-out: Percentage survival at 25um, 25 uM mean
[10] = 25 uM, replicate A, read-out: Percentage survival at 25um, 25 um A
[11] = 25 uM, replicate B, read-out: Percentage survival at 25um, 25 uM B
[12] = 25 uM, replicate C, read-out: Percentage survival at 25um, 25 uM C
[13] = first replicate column, read-out: Percentage survival at 100um, 100 uM A
[14] = mean of three replicates, read-out: Percentage survival at 100um, 100 uM mean
[15] = second replicate column, read-out: Percentage survival at 100um, 100 uM A
[16] = third replicate column, read-out: Percentage survival at 100um, 100 uM A
[17] = replicate 1, read-out: Percentage survival at 100um, 100 uM A (first replicate column)
[18] = replicate 3, read-out: Percentage survival at 100um, 100 uM A (third replicate column)

SMILES	activity at 25 µM [2] [%]	activity at 100 µM [5] [%]	activity at 100 µM [6] [%]	activity at 100 µM [7] [%]	activity at 100 µM [8] [%]	activity at 25 µM [9] [%]	activity at 25 µM [10] [%]	activity at 25 µM [11] [%]	activity at 25 µM [12] [%]	activity at 100 µM [13] [%]	activity at 100 µM [14] [%]	activity at 100 µM [15] [%]	activity at 100 µM [16] [%]	also measured
CC1(C)CC(NC(=O)C(=O)Nc2ccc(Cl)cc2)CC(C)(C)N1 [MMV1580501]	75.9	74.7	76.9	78.1	69									activity at 25 µM [1]: 79.5%; activity at 25 µM [3]: 89.4%; activity at 25 µM [4]: 73.3%
c1cc(CN2CCCNCCNCCCNCC2)ccc1CN1CCCNCCNCCCNCC1 [MMV1580502]	89	83.6	86.9	83.7	80.2									activity at 25 µM [1]: 91.1%; activity at 25 µM [3]: 97.4%; activity at 25 µM [4]: 86.9%
CC(=O)N1c2ccccc2NC2=C(C(=O)CC(C)(C)C2)C1c1ccc(OCc2ccccc2)cc1 (stereo not drawn) [MMV1580503]						100	99.4	107	94.6	99.3	97.8	113	80.9	
Oc1ccc(NCc2ccccc2OCc2ccccc2)cc1 [MMV1580504]						81.4	86.2	84.4	73.7		8.06			activity at 100 µM [17]: 2.17%; Percent fungal survival at 100 µM: 4.7%; activity at 100 µM [18]: 17.3%
O=C(Nc1ccc(N2CCN(C(=O)c3ccccc3)CC2)cc1)c1ccc2c(c1)OCO2 [MMV1580505]	103	96.7	102	96.8	91.4									activity at 25 µM [1]: 104%; activity at 25 µM [3]: 109%; activity at 25 µM [4]: 101%
C[C@H](NC(=O)C(=O)Nc1ccccc1C(C)(C)C)C(=O)N[C@@H](CC(=O)O)C(=O)COc1c(F)c(F)cc(F)c1F [MMV1580794]						43.5	71.1	-10.5	70		70.9			activity at 100 µM [17]: 64.2%; Percent fungal survival at 100 µM: 60.7%; activity at 100 µM [18]: 87.8%
CC[C@@]1(O)C(=O)OCc2c1cc1n(c2=O)Cc2cc3c([N+](=O)[O-])cccc3nc2-1 [MMV1580796]	95.3	86.8	97.1	84.7	78.6									activity at 25 µM (read-out: Percentage survival at 25um, 25 uM B): 102%; activity at 25 µM (read-out: Percentage survival at 25um, 25 uM C): 81.7%; activity at 25 µM (read-out: Percentage survival at 25um, 25 uM mean): 93.1%
OCCC#Cc1nc(-c2ccc(F)cc2)c(-c2ccncc2)n1CCCc1ccccc1 [MMV1580797]						67.7	62	74.7	66.4	53.2	57.6	58.3	61.4	
Cc1[nH]c2ccccc2c1CC(=O)N[C@@H](Cc1ccccc1)C(=O)N(C)c1ccccc1 [MMV1580798]						85.4	85.6	92.9	77.6	87.3	82.4	79.6	80.5	
COc1ccc(COc2cc3oc(=O)c4cc(C(C)O)ccc4c3cc2OC)cc1 (stereo not drawn) [MMV1580799]						95.8	100	103	84.1	90.3	91.5	87.1	97	
N#Cc1cc([N+](=O)[O-])ccc1Oc1ccccc1Cl [MMV1580800]						66.8	54.7	82.6	63.1	3.13	19.4	3.43	51.7	
Cc1nc2ccc(Cl)cc2c(-c2ccccc2)c1CC(=O)O [MMV1580801]						86.1	87.4	94.3	76.7	85.8	83.4	76.8	87.5	
